Measurements from US20210047291A1, “PESTICIDALLY ACTIVE HETEROCYCLIC DERIVATIVES WITH SULFUR CONTAINING SUBSTITUENTS” (SYNGENTA PARTICIPATIONS AG, priority 2018, published 2021).
Like-named read-outs stand apart in the source and are kept apart here.

Tests used:
Assay type in all cases: in vivo
[1] = test system: Euschistus heros (Neotropical Brown Stink Bug); test: Example B3: Euschistus heros, soybean leaves, N2 nymphs; details: for percent effect (mortality or growth inhibition) at 200 ppm: 120 h, read-out: effect in at least one of the two categories (mortality or growth inhibition)
Experimental: Soybean leaves on agar in 24-well microtiter plates were sprayed with aqueous test solutions prepared from 10,000 ppm DMSO stock solutions. After drying the leaves were infested with N2 nymphs. The samples were assessed for mortality and growth inhibition in comparison to untreated samples 5 days after infestation.

[2] = test system: Myzus persicae (Green peach aphid); test: Example B5: Myzus persicae feeding/contact activity, sunflower leaf discs; details: foliar; for mortality at 200 ppm: 144 h
Experimental: Sunflower leaf discs were placed onto agar in a 24-well microtiter plate and sprayed with aqueous test solutions prepared from 10,000 ppm DMSO stock solutions. After drying, the leaf discs were infested with an aphid population of mixed ages. The samples were assessed for mortality 6 days after infestation.

[3] = test system: Myzus persicae (Green peach aphid); test: Example B6: Myzus persicae systemic activity, pea seedlings; details: for mortality at 24 ppm: 144 h
Experimental: Roots of pea seedlings infested with an aphid population of mixed ages were placed directly into aqueous test solutions prepared from 10,000 DMSO stock solutions. The samples were assessed for mortality 6 days after placing seedlings into test solutions.

[4] = test system: Plutella xylostella (Diamond Back Moth); test: Example B7: Plutella xylostella, artificial diet, L2 larvae; details: 120 h, read-out: effect in at least one of the two categories (mortality or growth inhibition); for percent effect (mortality or growth inhibition) at 200 ppm: application rate of 200 ppm, L2 larvae, 5 days after infestation
Experimental: (§1) 24-well microtiter plates with artificial diet were treated with aqueous test solutions prepared from 10,000 ppm DMSO stock solutions by pipetting. After drying, the plates were infested with L2 larvae (10 to 15 per well). The samples were assessed for mortality and growth inhibition in comparison to untreated samples 5 days after infestation.

[5] = test system: Spodoptera littoralis (Egyptian Cotton Leaf Worm); test: Example B9: Spodoptera littoralis, cotton leaf discs (mortality, anti-feeding, growth inhibition); details: foliar, 72 h, read-out: control (mortality, anti-feeding effect or growth inhibition)
Experimental: Cotton leaf discs were placed onto agar in 24-well microtiter plates and sprayed with aqueous test solutions prepared from 10,000 ppm DMSO stock solutions. After drying the leaf discs were infested with five L1 larvae. The samples were assessed for mortality, anti-feeding effect, and growth inhibition in comparison to untreated samples 3 days after infestation. Control of Spodoptera littoralis by a test sample is given when at least one of the categories mortality, anti-feedant effect, and growth inhibition is higher than the untreated sample.

Melodoigyne incognita = test: Example B14: Melodoigyne incognita juvenile mobility, in vitro profiling in 96 well plate; details: read-out: control (juvenile mobility)
Experimental: Test solutions are prepared from 10,000 ppm DMSO stock solutions with a TECAN robot to achieve 20 μL of 1000, 200, 100, 50, 25 and 12.5 ppm. For each concentration three replicates are produced. Per well, 80 μL nematode solution is added containing 100 to 150 freshly harvested second stage juveniles of Melodoigyne incognita. The plates are covered and stored at room temperature in the dark and incubated for 24 h. Mobility of the exposed juveniles in a treated well is measured using an imaging tool and compared to an average of 12 untreated replicates.

[6] = test system: Diabrotica Balteata (Corn Root Worm); test: Example B2: Diabrotica balteata, maize sprouts, L2 larvae; details: Diabrotica balteata, 96 h, application rate of 200 ppm; L2 larvae; 4 days after infestation; read-out: effect in at least one of the two categories (mortality or growth inhibition)
Experimental: as §1, with “Maize sprouts placed onto an agar layer in 24-well” for “24-well”, “plates” for “plates with artificial diet”, “spraying.” for “pipetting.”, “(6” for “(10”, “10” for “15”, “4” for “5”

[7] = Euschistus heros, application rate of 200 ppm, N2 nymphs, 5 days after infestation
[8] = Myzus persicae, application rate of 200 ppm, mixed ages, 6 days after infestation, read-out: mortality
[9] = Myzus persicae, test rate of 24 ppm, mixed ages, 6 days after placing seedlings into test solutions, read-out: mortality
[10] = application rate of 200 ppm, L1 larvae, 3 days after infestation
[11] = 200 ppm, after 24 h, second stage juveniles

SMILES: CCS(=O)(=O)c1cc(N2CCCC2=O)cnc1-c1nc2cc(C(F)(F)F)ncc2n1C [P5, 1-[5-ethylsulfonyl-6-[3-methyl-6-(trifluoromethyl)imidazo[4,5-c]pyridin-2-yl]-3-pyridyl]pyrrolidin-2-one]
- mortality at 50 ppm ([1]; Euschistus heros): 100%
- percent effect (mortality or growth inhibition) at 200 ppm ([1]; Euschistus heros): ≥ 80%
- mortality at 12.5 ppm ([2]; Myzus persicae): 0%
- mortality at 200 ppm ([2]; Myzus persicae): ≥ 80%
- mortality at 1.5 ppm ([3]; Myzus persicae): 80%
- mortality at 24 ppm ([3]; Myzus persicae): ≥ 80%
- percent control (mortality or growth inhibition) at 200 ppm [4]: ≥ 80%
- percent control (mortality, anti-feedant effect or growth inhibition) at 200 ppm [5]: ≥ 80%
- pest or weed control at 200 ppm (Melodoigyne incognita; 24 h): ≥ 80%

SMILES: CCS(=O)(=O)c1cc(N(C(C)=O)C2CC2)cnc1-c1nc2cc(C(F)(F)F)ncc2n1C [P10, N-cyclopropyl-N-[5-ethylsulfonyl-6-[3-methyl-6-(trifluoromethyl)imidazo[4,5-c]pyridin-2-yl]-3-pyridyl]acetamide]
- percent effect (mortality or growth inhibition) at 200 ppm [6]: ≥ 80%
- percent effect (mortality or growth inhibition) at 200 ppm [1, 7]: ≥ 80%
- mortality at 200 ppm [2, 8]: ≥ 80%
- mortality at 24 ppm [3, 9]: ≥ 80%
- percent effect (mortality or growth inhibition) at 200 ppm [4]: ≥ 80%
- percent control (mortality, anti-feedant effect or growth inhibition) at 200 ppm [5, 10]: ≥ 80%
- pest or weed control at 200 ppm (Melodoigyne incognita; [11]): ≥ 80%

SMILES: CCS(=O)(=O)c1cc(N(C)C(=O)C(F)(F)F)cnc1-c1nc2cc(C(F)(F)F)ncc2n1C [P11, N-[5-ethylsulfonyl-6-[3-methyl-6-(trifluoromethyl)imidazo[4,5-c]pyridin-2-yl]-3-pyridyl]-2,2,2-trifluoro-N-methyl-acetamide]
- percent effect (mortality or growth inhibition) at 200 ppm [6]: ≥ 80%
- percent effect (mortality or growth inhibition) at 200 ppm [1, 7]: ≥ 80%
- mortality at 200 ppm [2, 8]: ≥ 80%
- mortality at 24 ppm [3, 9]: ≥ 80%
- percent effect (mortality or growth inhibition) at 200 ppm [4]: ≥ 80%
- percent control (mortality, anti-feedant effect or growth inhibition) at 200 ppm [5, 10]: ≥ 80%
- pest or weed control at 200 ppm (Melodoigyne incognita; [11]): ≥ 80%

SMILES: CCS(=O)(=O)c1cc(N(C)C(=O)COC)cnc1-c1nc2cc(C(F)(F)F)ncc2n1C [P12, N-[5-ethylsulfonyl-6-[3-methyl-6-(trifluoromethyl)imidazo[4,5-c]pyridin-2-yl]-3-pyridyl]-2-methoxy-N-methyl-acetamide]
- percent effect (mortality or growth inhibition) at 200 ppm [6]: ≥ 80%
- percent effect (mortality or growth inhibition) at 200 ppm [1, 7]: ≥ 80%
- mortality at 200 ppm [2, 8]: ≥ 80%
- mortality at 24 ppm [3, 9]: ≥ 80%
- percent effect (mortality or growth inhibition) at 200 ppm [4]: ≥ 80%
- percent control (mortality, anti-feedant effect or growth inhibition) at 200 ppm [5, 10]: ≥ 80%
- pest or weed control at 200 ppm (Melodoigyne incognita; [11]): ≥ 80%

SMILES: CCS(=O)(=O)c1cc(N(C)C(=O)CS(C)(=O)=O)cnc1-c1nc2cc(C(F)(F)F)ncc2n1C [P17, N-[5-ethylsulfonyl-6-[3-methyl-6-(trifluoromethyl)imidazo[4,5-c]pyridin-2-yl]-3-pyridyl]-N-methyl-2-methylsulfonyl-acetamide]
- percent effect (mortality or growth inhibition) at 200 ppm [6]: ≥ 80%
- percent effect (mortality or growth inhibition) at 200 ppm [1, 7]: ≥ 80%
- mortality at 200 ppm [2, 8]: ≥ 80%
- mortality at 24 ppm [3, 9]: ≥ 80%
- percent control (mortality, anti-feedant effect or growth inhibition) at 200 ppm [5, 10]: ≥ 80%
- pest or weed control at 200 ppm (Melodoigyne incognita; [11]): ≥ 80%

SMILES: CCS(=O)(=O)c1cc(N(C)C(=O)CCl)cnc1-c1nc2cc(C(F)(F)F)ncc2n1C [P22, 2-chloro-N-[5-ethylsulfonyl-6-[3-methyl-6-(trifluoromethyl)imidazo[4,5-c]pyridin-2-yl]-3-pyridyl]-N-methyl-acetamide]
- percent effect (mortality or growth inhibition) at 200 ppm [1, 7]: ≥ 80%
- mortality at 200 ppm [2, 8]: ≥ 80%
- mortality at 24 ppm [3, 9]: ≥ 80%
- percent control (mortality, anti-feedant effect or growth inhibition) at 200 ppm [5, 10]: ≥ 80%
- pest or weed control at 200 ppm (Melodoigyne incognita; [11]): ≥ 80%

SMILES: CCS(=O)(=O)c1cc(N(OC)C(=O)C2CC2)cnc1-c1nc2cc(C(F)(F)F)ncc2n1C [P24, N-[5-ethylsulfonyl-6-[3-methyl-6-(trifluoromethyl)imidazo[4,5-c]pyridin-2-yl]-3-pyridyl]-N-methoxy-cyclopropanecarboxamide]
- percent effect (mortality or growth inhibition) at 200 ppm [6]: ≥ 80%
- percent effect (mortality or growth inhibition) at 200 ppm [1, 7]: ≥ 80%
- percent effect (mortality or growth inhibition) at 200 ppm [4]: ≥ 80%
- percent control (mortality, anti-feedant effect or growth inhibition) at 200 ppm [5, 10]: ≥ 80%
- pest or weed control at 200 ppm (Melodoigyne incognita; [11]): ≥ 80%

SMILES: CCC(=O)N(OC)c1cnc(-c2nc3cc(C(F)(F)F)ncc3n2C)c(S(=O)(=O)CC)c1 [P29, N-[5-ethylsulfonyl-6-[3-methyl-6-(trifluoromethyl)imidazo[4,5-c]pyridin-2-yl]-3-pyridyl]-N-methoxy-propanamide]
- percent effect (mortality or growth inhibition) at 200 ppm [6]: ≥ 80%
- percent effect (mortality or growth inhibition) at 200 ppm [1, 7]: ≥ 80%
- mortality at 200 ppm [2, 8]: ≥ 80%
- mortality at 24 ppm [3, 9]: ≥ 80%
- percent effect (mortality or growth inhibition) at 200 ppm [4]: ≥ 80%
- percent control (mortality, anti-feedant effect or growth inhibition) at 200 ppm [5, 10]: ≥ 80%
- pest or weed control at 200 ppm (Melodoigyne incognita; [11]): ≥ 80%

SMILES: CCS(=O)(=O)c1cc(N(OC)C(C)=O)cnc1-c1nc2cc(C(F)(F)F)ncc2n1C [P30, N-[5-ethylsulfonyl-6-[3-methyl-6-(trifluoromethyl)imidazo[4,5-c]pyridin-2-yl]-3-pyridyl]-N-methoxy-acetamide]
- percent effect (mortality or growth inhibition) at 200 ppm [6]: ≥ 80%
- percent effect (mortality or growth inhibition) at 200 ppm [1, 7]: ≥ 80%
- mortality at 200 ppm [2, 8]: ≥ 80%
- mortality at 24 ppm [3, 9]: ≥ 80%
- percent effect (mortality or growth inhibition) at 200 ppm [4]: ≥ 80%
- percent control (mortality, anti-feedant effect or growth inhibition) at 200 ppm [5, 10]: ≥ 80%
- pest or weed control at 200 ppm (Melodoigyne incognita; [11]): ≥ 80%

SMILES: CCS(=O)(=O)c1cc(N2CCOC2=O)cnc1-c1nc2cc(C(F)(F)F)ncc2n1C [P34, 3-[5-ethylsulfonyl-6-[3-methyl-6-(trifluoromethyl)imidazo[4,5-c]pyridin-2-yl]-3-pyridyl]oxazolidin-2-one]
- mortality at 50 ppm ([1]; Concentration 50 ppm, Euschistus heros (Example B3), read-out: Mortality (%)): 80%
- percent effect (mortality or growth inhibition) at 200 ppm [1, 7]: ≥ 80%
- mortality at 200 ppm [2, 8]: ≥ 80%
- mortality at 12.5 ppm ([2]; Concentration 12.5 ppm, Myzus persicae (feeding/contact, Example B5), read-out: Mortality (%)): 100%
- mortality at 1.5 ppm ([3]; Concentration 1.5 ppm, Myzus persicae (systemic, Example B6), read-out: Mortality (%)): 100%
- mortality at 24 ppm [3, 9]: ≥ 80%
- percent effect (mortality or growth inhibition) at 200 ppm [4]: ≥ 80%
- percent control (mortality, anti-feedant effect or growth inhibition) at 200 ppm [5, 10]: ≥ 80%
- pest or weed control at 200 ppm (Melodoigyne incognita; [11]): ≥ 80%

SMILES: CCS(=O)(=O)c1cc(N2CCN(OC)C2=O)cnc1-c1nc2cc(C(F)(F)F)ncc2n1C [P35, 1-[5-ethylsulfonyl-6-[3-methyl-6-(trifluoromethyl)imidazo[4,5-c]pyridin-2-yl]-3-pyridyl]-3-methoxy-imidazolidin-2-one]
- percent effect (mortality or growth inhibition) at 200 ppm [1, 7]: ≥ 80%
- mortality at 200 ppm [2, 8]: ≥ 80%
- mortality at 24 ppm [3, 9]: ≥ 80%
- percent control (mortality, anti-feedant effect or growth inhibition) at 200 ppm [5, 10]: ≥ 80%

SMILES: CCC(=O)N(c1cnc(-c2nc3cc(C(F)(F)F)ncc3n2C)c(S(=O)(=O)CC)c1)C1CC1 [P40, N-cyclopropyl-N-[5-ethylsulfonyl-6-[3-methyl-6-(trifluoromethyl)imidazo[4,5-c]pyridin-2-yl]-3-pyridyl]propanamide]
- percent effect (mortality or growth inhibition) at 200 ppm [6]: ≥ 80%
- percent effect (mortality or growth inhibition) at 200 ppm [1, 7]: ≥ 80%
- mortality at 200 ppm [2, 8]: ≥ 80%
- mortality at 24 ppm [3, 9]: ≥ 80%
- percent effect (mortality or growth inhibition) at 200 ppm [4]: ≥ 80%
- percent control (mortality, anti-feedant effect or growth inhibition) at 200 ppm [5, 10]: ≥ 80%
- pest or weed control at 200 ppm (Melodoigyne incognita; [11]): ≥ 80%
